Key:
Histone H2AX (γH2AX) [1] = assay: γH2AX formation in human fibroblasts by immunofluorescent microscopy; assay type: cell-based; conditions: 48 hours
Experimental: Phosphorylation of Histone H2AX (forming γH2AX) is a marker for DNA damage in many settings and is also observed at telomeres when cells enter senescence. […] In both experiments, cells were incubated for 48 hours in the presence of SPOX-1 or 11mer T-oligo before processing for immunofluorescent microscopy.

MCF-7 cells = assay: growth of MCF-7 breast cancer cells; assay type: cell-based, human; conditions: 40 μM and 80 μM
Experimental: The effect of SPOX compounds on growth and apoptosis of human breast cancer cells was tested using cultures of MCF-7 cells. The effect on cell growth was tested by plating 20,000 cells per 35 mm dish. Medium containing either diluent alone (DMSO), SPOX-1 or SPOX-2 (10 μM, 40 μM and 80 μM) was introduced at 96 hours and growth was determined 8 days after plating.
The effect of SPOX compounds on growth of human breast cancer cells was tested using cultures of MCF-7 cells. The effect on cell growth was tested by plating 20,000 cells per 35 mm dish. Medium containing either diluent (water or DMSO) alone, SPOX-337, SPOX-388, SPOX-343 (10 μM, 40 μM and 80 μM) or 16mer T-oligo (SEQ ID NO: 2) was introduced at 96 hours and growth was determined 3 days after plating.

[2] = tested on: poly(ADP-ribose) polymerase (PARP); assay: PARP cleavage in MCF-7 cells, western blot; assay type: cell-based, human; conditions: compared with TNF-α
Experimental: (§1) Phosphorylation of Histone H2AX (forming γH2AX) was assessed as a marker for DNA damage. Apoptosis was measured by western blot analysis to show cleavage of poly(ADP-ribose) polymerase (PARP). PARP is a substrate for caspase-3, an enzyme that mediates apoptosis, and thus cleavage of PARP by caspase-3 is indicative of ongoing apoptosis. […] Thus, both SPOX compounds induce apoptosis and formation of γH2AX, as a marker of DNA damage-like responses, in the MCF-7 breast cancer cell line.

human skin explants = assay: melanogenesis in human skin explants (Fontana Masson stain, image analysis); assay type: cell-based; conditions: 80 uM; 24, 48 and 72 hours; positive control pTT 100 uM
Experimental: Normal facial skin removed from a person at the time of facelift was carefully cut into fragments approximately 5×5 mm. The fragments were placed in tissue culture dishes in standard culture medium, under conditions known to maintain the fragments in good condition, responsive to physiologic stimuli, for at least one week (Arad et al, FASEB J. Jul. 28, 2006. [Epub]). Fragments were arranged with at least 3 per 35 mm dish and after 48 hours, one dish each was provided with fresh medium containing diluent (DMSO) alone (Dil) or SPOX-1 or SPOX-2 each at 80 uM or thymidine dinucleotide (pTT) at 100 uM as a positive control. […] The 72 hour diluent (Dil) control sample was judged to be bacterially contaminated, affecting both the overall histology and the apparent melanin content, which based on earlier experiments would be expected to be the same as at 24 and 48 hours. All other samples were believed to be healthy and to accurately represent the response to treatment.

Histone H2AX (γH2AX) [3] = assay: γH2AX formation in MCF-7 cells, western blot; assay type: cell-based, human; conditions: compared with 16mer T-oligo
Experimental: as §1

p53 = p53 level in human fibroblasts, Western blot; assay type: cell-based; conditions: 48 hours, compared with diluent alone
Experimental: (§2) Human fibroblasts were treated with diluent (water or DMSO) alone, SPOX-1, SPOX-2, or 16mer T-oligo (SEQ ID NO: 2) for 48 hours after which total cellular proteins were harvested and Western blot analysis performed using anti-p53 and anti-p21 antibodies.

[4] = tested on: MM-AN human melanoma cells; assay: apoptosis of MM-AN melanoma cells by FACS analysis (propidium iodide); assay type: cell-based; conditions: 96 hours, 10 μM, 40 μM and 80 μM
Experimental: Cultures of MM-AN human melanoma cells were treated with diluent (water or DMSO) alone, a T-oligo (16mer: 5′ GTTAGGGTTAGGGTTA 3′; SEQ ID NO: 2), SPOX-1, or SPOX-2 for 96 hours, then collected and processed for FACS analysis. One concentration of the T-oligo (20 μM) and three concentrations of each SPOX compound (10 μM, 40 μM and 80 μM) were tested. Each bar is the mean of triplicate dishes +/− standard error of the mean (SEM). FACS profiles are depicted at the top of the figure.
Cultures of MM-AN human melanoma cells were treated with diluent (water or DMSO) alone, 16mer T-oligo (SEQ ID NO: 2), SPOX-337, SPOX-338 or SPOX-343 for 72 hours, then collected and processed for FACS analysis. One concentration of the T-oligo (20 μM) and three concentrations of each SPOX compound (10 μM, 40 μM and 80 μM) were tested.

[5] = tested on: H460 human lung cancer cells; assay: growth of H460 lung cancer cells; assay type: cell-based; conditions: 40 μM; 1, 2, 3 and 4 days after plating
Experimental: The effect of SPOX compounds on growth of human lung cancer cells was tested using cultures of H460 cells. Briefly, 20,000H460 cells were plated per 35 mm dish. Medium containing either diluent (DMSO) alone, SPOX-1 or SPOX-2 (40 μM) was introduced at 96 hours and growth was determined 1, 2, 3 and 4 days after plating.

survivin = survivin expression in H460 lung cancer cells; assay type: cell-based, human
Experimental: The ability of the SPOX compounds to inhibit expression of survivin, a member of the Inhibitor of Apoptosis Protein (IAP) family, was determined by treating H460 human lung cancer cells for two days with diluent (DMSO) alone, SPOX-1 (20 μM, 40 μM), SPOX-2 (20 μM, 40 μM) and T-oligo (16mer: 5′ GGTTGGTTGGTTGGTT 3′; SEQ ID NO: 3) (20 μM, 40 μM) or for 24 hours with SPOX-1 (80 μM) or SPOX-2 (80 μM). Following treatment, cells were collected, counted, and assayed for survivin expression. The results are depicted in FIG. 15.

p21 = p21 level in human fibroblasts, Western blot; assay type: cell-based; conditions: 48 hours, compared with diluent alone
Experimental: as §2

[6] = tested on: WRN+ U20S human osteosarcoma cells; assay: apoptosis of WRN+ U20S cells by FACS analysis; assay type: cell-based; conditions: 96 hours; 10 μM, 40 μM and 80 μM
Experimental: (§3) Cultures of WRN+ and WRN− U20S human osteosarcoma cells were treated with either diluent (water or DMSO) alone, 16mer T-oligo (SEQ ID NO: 2) or SPOX-1 for 96 hours, then collected and processed for FACS analysis. One concentration of the 16mer T-oligo was tested, 20 μM, and three concentrations of SPOX-1 were tested, 10 μM, 40 μM and 80 μM.

[7] = tested on: WRN− U20S human osteosarcoma cells; assay: apoptosis of WRN− U20S cells by FACS analysis; assay type: cell-based; conditions: 96 hours; 40 μM and 80 μM
Experimental: as §3

[8] = tested on: MM-AN human melanoma cells; assay: growth of MM-AN melanoma cells; assay type: cell-based; conditions: 40 μM; 2, 3 and 4 days after treatment
Experimental: The effect of SPOX compounds on growth of human melanoma cells was tested using cultures of MM-AN cells. Briefly, 20,000 MM-AN cells were plated per 35 mm dish. Medium containing either diluent (DMSO) alone, SPOX-1 or SPOX-2 (40 μM) was introduced at 96 hours and growth was determined 2, 3 and 4 days after treatment.

human fibroblasts = assay: growth of newborn fibroblast cells; assay type: cell-based; conditions: 40 μM; growth determined 2 and 4 days after plating
Experimental: The effect of SPOX compounds on growth of human fibroblasts was tested using cultures of newborn fibroblast cells. Briefly, 20,000 cells were plated per 35 mm dish. Medium containing either diluent (dimethyl sulfoxide (DMSO)) alone, SPOX-1 (40 μM) SPOX-2 (40 μM) or 11mer T-oligo (SEQ ID NO:1) was introduced at 96 hours and growth was determined 2 and 4 days after plating.

What does the source list for `C=CCOC(=O)C1C2C(=O)OC(c3ccccc3)C(c3ccccc3)N2C(c2ccc(O)cc2)C12C(=O)Nc1ccc(I)cc12` (centres unmarked) [SPOX-1]?
γH2AX expression (Histone H2AX (γH2AX) [1]): induce γH2AX expression; growth of MCF-7 cells (MCF-7 cells; 10 μM, growth determined 8 days after plating): inhibited growth of MCF-7 cells in a dose-dependent manner; growth of MCF-7 cells at higher concentrations (MCF-7 cells; 8 days after plating): nearly complete inhibition of growth; PARP cleavage [2]: cause PARP cleavage; melanogenesis (tanning) in human skin (human skin explants): caused tanning, comparable to pTT; phosphorylation of histone H2AX (γH2AX) (Histone H2AX (γH2AX) [3]): cause phosphorylation of the histone protein H2AX; level of p53 (p53): induced the level of p53; induction of apoptosis [4]: induced apoptosis with SPOX-1 having a greater effect; growth of H460 cells [5]: inhibited growth; survivin expression at 80 μM (survivin; 24 hours, 80 μM): reduced survivin expression to nearly undetectable levels; survivin expression (survivin; 2 days, 20 μM, 40 μM): dose-dependent reduction in survivin expression; survivin expression at 40 μM (survivin; 2 days, 40 μM): nearly undetectable; level of p21 (p21): induced the level of the p53-dependent downstream effector protein p21 to a similar degree as 16mer T-oligo; induction of apoptosis in WRN+ U20S cells [6]: induced apoptosis in WRN+ U20S cells in a dose-dependent manner; induction of apoptosis in WRN− U20S cells [7]: apoptosis was also seen; growth of MM-AN cells [8]: inhibited growth; growth of human fibroblast cells (human fibroblasts): inhibited growth

— patent US20100093716A1, “THERAPEUTIC METHODS USING WRN BINDING MOLECULES” (TRUSTEES OF BOSTON UNIVERSITY AND PRESIDENT AND FELLOWS OF …, priority 2006, published 2010)
